The record followed here is article PMC9046208, “Foldamers reveal and validate therapeutic targets associated with toxic α-synuclein self-assembly” (Nature Communications, 2022).

One assay concerns the target Aβ42 aggregation (Homo sapiens, UniProt P05067). Briefly: ThT aggregation assay, Aβ42. The assay is classed as biochemical. As to conditions: equimolar ratio. Here is the method:
The aggregation kinetics of αS was monitored using ThT fluorescence assay (λex = 450 nm and λem = 485 nm). To study the aggregation kinetics of αS, the ThT dye at a final concentration of 50 μM was added to 100 μM αS solution in the aggregation buffer (1 x PBS buffer) with and without various concentrations of SK-129 in a Costar black 96–well plate (Corning Inc., Kennebunk, ME). The small molecules were dissolved in dimethyl sulfoxide (DMSO; final DMSO concentration = 0.5%, v/v). The final volume in each well was 140 μL. The plate was incubated at 37 °C with 16 min shaking (434 rpm) and 44 min without shaking in an Infinite M200PRO plate reader (Tecan, Männedorf, Switzerland) and fluorescence was recorded after every hour. We used two methods to quantify the effect of molecules on the aggregation of αS; either we have reported the t50 (time required to reach 50% fluorescence of ThT), which was extracted by fitting the ThT curve as a sigmoidal fit or the absolute ThT fluorescence intensity was reported. […] In the second method, we determined the final ThT fluorescence intensity for the aggregation of αS/Aβ42(with or without ligands) as an average of three separate experiments. […]
The data were expressed as mean and the error bars report the s.e.m. […]

The next assay addresses T1, αS aggregation (Homo sapiens, UniProt P37840).
T1 construct: made in house; host or cells: Escherichia coli BL21(DE3), periplasm
The assay is described as follows: SDS-PAGE analysis of soluble and insoluble αS fractions. The assay is classed as biochemical. Conditions: 100 µM αS, equimolar SK-129, four days. As to the method: The solution of αS (100 µM) in the absence and presence of SK-129 were prepared in the aggregation buffer (20 mM NaCl, 20 mM NaPi, pH 6.5) and kept at 37 °C and constant shaking at 1200 rpm until the aggregation of αS plateaued (four days). The solutions were separated into soluble and insoluble fractions of αS by centrifugation at 22,000 × g for 20 min. Afterwards, 2 x Laemmli protein sample loading buffer (Biorad, Hercules, CA) was added to the fractions and boiled at 95 °C for 5 min and ran on a 12% Mini-PROTEAN precast protein gel (Biorad, Hercules, CA). In addition, we also quantified SDS-PAGE gel band intensities using ImageJ software. The gel-based experiments were repeated three times (n = 3) independently to ensure the reproducibility of the data. All the uncropped gels (from Main manuscript and Supplementary Figures) have been included in the Supplementary Data File as Supplementary Fig. 29.

Assay [1] relates to HEK cells expressing αS-A53T-YFP. The assay is described as follows: Intracellular seed catalyzed aggregation in HEK cells, MTT viability. Conditions: 10 µM SK-129 added 8 h after PD seeds, up to four days. The assay is classed as cell-based. Here is the method:
The HEK cells (200,000 cells/mL) were plated in an µ-slide eight-well plate (300 µL/well) and incubated at 37 °C and 5% CO2 (g), and allowed to adhere to the plate for 24 h in media (DMEM, 10% FBS, 1% pen/strep). […] The HEK cells were incubated with αS fibrils for 8 h followed by the addition of 10 µM SK-129 for 300 µL media in each well (0.3 µL of 10 mM stock solution in DMSO, total DMSO = 0.1% v,v). The eight-well plate was incubated for a total of 24 h. The eight-well plate after 24 h was used for both confocal imaging and for the cytotoxicity measurements using MTT assay (2 wells/condition, 300 µL/well). In each experiment, 2 wells were used for each condition, including control (only media and DMSO), fibrils, and fibrils+SK-129.
The HEK cells in the eight-well plate were treated with 30 µL of 1x PBS buffer containing MTT dye (5 mg/mL in 1x PBS buffer) to each well. The plates were wrapped in aluminum foil and incubated for 3 h. After 3 h, all liquid was aspirated carefully without disturbing the formazan crystals. To each well, 300 µL of DMSO was added to dissolve the crystals. Once dissolved, the DMSO solution was transferred to a clear 96-well plate (100 µL/well). The absorbance was read on a 96-well plate reader at 570 nm. The cytotoxicity assay was conducted up to four days from when the protein conditions were added to the cells. […]

Another assay relates to SH-SY5Y cells. Briefly: MTT cytotoxicity assay, SH-SY5Y cells. The assay is classed as cell-based. As to conditions: 24 h, αS alone 48 ± 3%. As to the method: An MTT assay was conducted to assess the effect of SK-129 on the cytotoxicity mediated by αS aggregation in SH-SY5Y cells. The cells were cultured in phenol red-free Dulbeco’s Modified Eagle Medium (DMEM) with 10% Fetal Bovine Serum (FBS) and 1% penicillin-streptomycin (Pen/strep) at 37 °C and 5% CO2(g). The cells were plated in a clear, flat bottom 96-well cell culture plate (Costar, Kennebunk, ME) using a density of 10,000 cells per well with more than 90% cell viability. After incubating for 24 h, the media was aspirated, and 100 µL of fresh OptiMEM (Fisher Scientific, Pittsburgh, PA) was added, […] of various ligands at various stoichiometric ratios. The samples were then incubated for an additional 24 h at 37 °C and 5% CO2(g), followed by the addition of MTT dye (10 µL per well, prepared in 1x PBS buffer, 5 mg/mL). The plates were covered in aluminum foil and incubated again for 3 h. The solution in each well was carefully removed without disturbing the formazan crystals and replaced with 100 µL of DMSO to dissolve the formazan crystals. Subsequently, the plate was shaken in a 96-well plate reader for 5 min before measuring the absorbance at 570 nm. The cell viability was reported on a scale of 100%, using the control wells with regular media as 100% viability and the wells with 10% DMSO (v/v) as 0% viability.
A general note: Tetrazolium assays rely on reduction of a dye to a coloured formazan, in cell work by metabolically active cells.

Aβ42 aggregation, sequence (P05067 672-713 limits assumed): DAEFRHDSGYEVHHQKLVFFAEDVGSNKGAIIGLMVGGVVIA

`COC(=O)c1cc(OCC(=O)O)c2cccc(NC(=O)c3cc(OC(C)C)c4cccc(NC(=O)c5cc(OCC(=O)O)c6cccc(NC(=O)c7cc(OC(C)C)c8cccc([N+](=O)[O-])c8n7)c6n5)c4n3)c2n1` [SK-129]: on Aβ42 aggregation, the “effect on Aβ aggregation” value is listed as “did not show any noticeable effect”. Further, at αS aggregation, the “αS fraction detected by SDS-PAGE” value is listed as “predominantly detected in the soluble fraction”. For the same molecule, the “cell viability of HEK cells” value in assay [1] was “significantly higher upto four days”. Further, the “viability of SH-SY5Y cells” value in the assay with SH-SY5Y cells (10 μM αS aggregated with SK-129, 1:0.1 (αS:SK-129)) stood at 91 ± 4%; in the assay on SH-SY5Y cells (10 μM αS aggregated with SK-129, 1:1 (αS:SK-129)), 97 ± 4%.
